Experimental findings from patent US20230295157A1, “3-(1H-IMIDAZOL-2-YL)-2,3,8,8A-TETRAHYDROINDOLIZIN-5(1H)-ONE DERIVATIVES USEFUL AS FACTOR XIA INHIBITORS” (JANSSEN PHARMACEUTICA NV, priority 2020, published 2023) are described below.

The target in one assay is Factor XIa (Homo sapiens (Human), UniProt P03951). The assay is described as follows: Factor XIa inhibition assay (FLINT) utilizing a fluorophore-quencher pair peptide substrate. The settings on record: 30 min preincubation, kinetic reads over 30 min, read-out: FXIa Kin Inh IC50. The assay is classed as biochemical. The text has this:
Biological Example 1: Factor XIa Inhibition Assay Utilizing a Fluorophore-Quencher Pair Peptide Substrate
A fluorescence intensity (FLINT) based assay was used to monitor inhibition of Factor XIa. The peptide substrate, 5Fam-[…]-K5Tamra (purchased from New England Peptide) was chosen based on the FXI sequence. Conversion of zymogen […]. The custom peptide used in this assay was based on the Arg146 cleavage site of FXI. The peptide substrate was designed with a fluorophore-quencher pair, where the fluorescence is quenched until FXIa cleaves the 8-mer peptide after the Arg residue.
The Factor XIa FLINT assay was used with the following 5Fam-[…]-K5Tamra assay buffer: 50 mM Tris, pH 7.5, 100 mM NaCl, 5 mM CaCl2), 0.1 mg/mL BSA, 0.03% CHAPS. Assay buffer was prepared by mixing all ingredients fresh. 5Fam-[…]-K5Tamra peptide substrate was first prepared at 10 mM in 100% DMSO, then diluted to 3 mM in 100% DMSO. Assay buffer was then added directly to the 3 mM stock of substrate to prepare the 30 μM 2× working concentration (15 μM final concentration). The 2×Factor XIa stock solution was prepared by diluting 6.562 μM stock in 1×assay buffer for a 200 μM working stock solution (100 μM final concentration).
Test compound(s) were run in an 11-point, 3-fold serial dilution with a final top compound concentration of 100 nM. Final DMSO in assay was 2%. FXIa was preincubated with compound for 30-minutes and then substrate was added to initiate the reaction. The assay was run with kinetic (KIN) reads at 5 min intervals over 30 minutes. The time course was linear using 100 μM FXIa greater than 30 minutes. More specifically, the assay was run as follows: • 100 nL of 0.01 mM test compound was dispensed into black 384 well non-binding Greiner BioOne 784900 plate for 0.1 μM final concentration; • 5 μL of 1×assay buffer was dispensed to column 24 (low control) and 5 μL 2×Factor XIa solution was dispensed to columns 1-23 (column 23 high control); • the plate was centrifuged with a “cover” plate at 500 rpm for 1 min • the plate was pre-incubated for 30 minutes at room temperature with plate covered; • 5 μL of 2×5Fam-[…]-K5Tamra peptide substrate was dispensed into the entire plate, columns 1-24; • the plate was centrifuged with a “cover” plate at 500 rpm for 1 min; • the plate was read monitoring fluorescence intensity on the BMG PHERAStar at room temperature, using fluorescence module 485 nm/520 nm.
(§1) Percent inhibition (IC50) curves were generated per compound tested, and data was analyzed using a 4-parameter logistic fit using GeneData Screener. The relative fluorescence unit (RFU) values were normalized to percent inhibition using the following equation:
% inhibition=((HC-LC)−(compound−LC)/(HC-LC))*100
where LC—low control=mean signal of no Factor XIa or 100% inhibition of Factor XIa; HC—high control=mean signal of Factor XIa+5Fam-[…]-K5Tamra peptide substrate with DMSO only.
(§2) An 11-point dose response curve for the test compound(s) was generated using GENDATA to determine IC50 value based on the following equation:
Y=Bottom+(Top-Bottom)/(1+10^((logIC50-X)*HillSlope))
where Y is the % inhibition in the presence of X inhibitor concentration, Top=high control=mean signal of Factor XIa+5Fam-[…] K5Tamra peptide substrate with DMSO only; Bottom=low control−mean signal of no Factor XIa or 100% inhibition of Factor XIa; HillSlope—Hill coefficient; and IC50=concentration of compound with 50% inhibition in relation to top/high control.
Representative compounds of the present invention were tested according to the procedure described in Biological Example 1 and Biological Example 2 above, with results as listed in Table 3, below.

A further assay deals with human plasma kallikrein (Homo sapiens (Human), UniProt P03952). The assay is described as follows: Kallikrein inhibition assay (FLINT) utilizing a quenched AMC peptide substrate. The assay is classed as biochemical. The conditions noted are these: 30 min preincubation, kinetic reads over 30 min, Z-Gly-Pro-Arg-AMC substrate 50 μM; read-out: Kallikrein Kin Inh IC50. The protocol:
Biological Example 2: Kallikrein Inhibition Assay Utilizing a Quenched AMC Peptide Substrate A fluorescence intensity (FLINT) based assay was used to monitor inhibition of human plasma kallikrein.
The Kallikrein FLINT assay was used with the following Z-Gly-Pro-Arg-AMC assay buffer: 50 mM Tris, pH 7.5, 100 mM NaCl, 5 mM CaCl2), 0.1 mg/mL BSA, 0.03% CHAPS. Assay buffer was prepared by mixing all ingredients fresh. 2×Z-Gly-Pro-Arg-AMC peptide substrate was prepared by diluting 10 mM stock into 1×assay buffer for a 100 μM working concentration (50 μM final concentration). The 2×kallikrein stock solution was prepared by diluting 14.76 μM stock in 1×assay buffer for a 4 nM working stock solution (2 nM final concentration).
Test compound(s) were run in an 11-point, 3-fold serial dilution with a final top compound concentration of 1 μM. Final DMSO in assay was 2%. Plasma kallikrein was pre-incubated for 30-minute with compound and then 50 μM substrate was added to initiate the reaction. The assay was run with kinetic (KIN) reads at 5 min intervals over 30 minutes. […] More specifically, the assay was run as follows: • 100 nL of 0.1 mM test compound was dispensed into black 384-well non-binding Greiner BioOne 784900 plate for 1 μM final concentration; • 5 μL of 1×assay buffer was dispensed to columns 24 (low control) and 5 μL 2×human kallikrein enzyme solution was dispensed to columns 1-23 (column 23 high control); • the plate was centrifuged with a “cover” plate at 500 rpm for 1 min • the plate was pre-incubated for 30 minutes at room temperature with plate covered; • 5 μL of 2×Z-Gly-Pro-Arg-AMC peptide substrate was dispensed into the entire plate, columns 1-24; • the plate was centrifuged with a “cover” plate at 500 rpm for 1 min; • the plate was read monitoring fluorescence intensity on the BMG PHERAStar at room temperature, using fluorescence module 340 nm/440 nm.
as §1
% inhibition=((HC-LC)−(compound-LC)\(HC-LC))*100 where LC—low control=mean signal of human kallikrein enzyme or 100% inhibition of human kallikrein enzyme; HC—high control=mean signal of Factor XIa+Z-Gly-Pro-Arg-AMC peptide substrate with DMSO only.
as §2
Y=Bottom+(Top-Bottom)/(1+10^((logIC50−X)*HillSlope)) where Y is the % inhibition in the presence of X inhibitor concentration, Top=high control=mean signal of human kallikrein enzyme+Z-Gly-Pro-Arg-AMC peptide substrate with DMSO only; Bottom=low control−mean signal of no human kallikrein enzyme or 100% inhibition of human kallikrein enzyme; HillSlope—Hill coefficient; and IC50=concentration of compound with 50% inhibition in relation to top/high control.

[1] abbreviates: 5Fam-[…]-K5Tamra substrate 15 μM.

The structures appear in SMILES notation. Like-named read-outs stand apart in the source and are kept apart here.

human plasma kallikrein, sequence (P03952 391-638): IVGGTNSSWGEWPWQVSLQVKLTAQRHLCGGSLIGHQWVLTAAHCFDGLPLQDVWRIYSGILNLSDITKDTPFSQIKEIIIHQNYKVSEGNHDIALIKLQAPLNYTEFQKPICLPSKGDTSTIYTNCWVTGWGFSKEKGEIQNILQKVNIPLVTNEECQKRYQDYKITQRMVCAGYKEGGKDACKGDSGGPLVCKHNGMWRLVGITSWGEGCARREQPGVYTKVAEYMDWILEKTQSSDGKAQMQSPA
human plasma kallikrein, sequence (P03952 20-390 partner): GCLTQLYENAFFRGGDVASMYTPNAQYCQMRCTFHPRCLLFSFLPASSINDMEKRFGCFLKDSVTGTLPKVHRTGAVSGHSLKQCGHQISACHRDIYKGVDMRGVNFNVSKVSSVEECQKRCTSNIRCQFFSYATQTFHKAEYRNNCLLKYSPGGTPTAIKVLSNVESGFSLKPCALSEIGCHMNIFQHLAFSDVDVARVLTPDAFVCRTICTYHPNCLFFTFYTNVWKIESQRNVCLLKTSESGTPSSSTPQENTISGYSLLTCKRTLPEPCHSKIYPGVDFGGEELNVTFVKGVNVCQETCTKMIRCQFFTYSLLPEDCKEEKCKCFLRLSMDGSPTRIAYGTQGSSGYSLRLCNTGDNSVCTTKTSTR
Factor XIa, sequence (P03951 388-625): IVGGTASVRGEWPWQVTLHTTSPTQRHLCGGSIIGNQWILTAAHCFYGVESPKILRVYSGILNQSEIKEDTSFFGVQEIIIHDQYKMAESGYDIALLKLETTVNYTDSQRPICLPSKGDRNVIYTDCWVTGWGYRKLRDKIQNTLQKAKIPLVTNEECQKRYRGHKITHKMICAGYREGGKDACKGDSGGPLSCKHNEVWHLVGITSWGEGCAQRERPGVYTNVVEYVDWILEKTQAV
Factor XIa, sequence (P03951 19-387 partner): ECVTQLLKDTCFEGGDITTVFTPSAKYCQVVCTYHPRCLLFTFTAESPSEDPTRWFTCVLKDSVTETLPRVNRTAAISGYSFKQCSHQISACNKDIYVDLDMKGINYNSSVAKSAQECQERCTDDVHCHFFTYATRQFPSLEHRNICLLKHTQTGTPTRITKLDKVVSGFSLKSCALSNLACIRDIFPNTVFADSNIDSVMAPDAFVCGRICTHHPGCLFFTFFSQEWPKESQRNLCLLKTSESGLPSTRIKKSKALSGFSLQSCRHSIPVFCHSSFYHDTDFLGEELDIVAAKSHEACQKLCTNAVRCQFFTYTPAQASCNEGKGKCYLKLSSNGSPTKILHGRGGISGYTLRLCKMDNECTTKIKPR

As to `C[C@@H](C#N)c1nccc(-c2cnc([C@@H]3CCC4CC(c5c(-n6cnnn6)ccc(Cl)c5F)=CC(=O)N43)[nH]2)c1F` (relative stereo) [Example 164, (2*R)-2-(4-(2-((3S)-7-(3-chloro-2-fluoro-6-(1H-tetrazol-1-yl)phenyl)-5-oxo-1,2,3,5,8,8a-hexahydroindolizin-3-yl)-1H-imidazol-5-yl)-3-fluoropyridin-2-yl)propanenitrile], the IC50 is 4.3 nM on Factor XIa (5Fam-KLTRAETV-K5Tamra substrate 15 μM) and 16.6 nM on human plasma kallikrein.
Take `O=C1C=C(c2c(-n3cnnn3)ccc(Cl)c2F)C[C@@H]2CC[C@@H](c3ncc(-c4ccnc([C@H](O)C(F)(F)F)c4)[nH]3)N12` (relative stereo) [Example 174, (3S*,8aS*)-7-(3-chloro-2-fluoro-6-(1H-tetrazol-1-yl)phenyl)-3-(5-(2-((S*)-2,2,2-trifluoro-1-hydroxyethyl)pyridin-4-yl)-1H-imidazol-2-yl)-2,3,8,8a-tetrahydroindolizin-5(1H)-one]: the results for the IC50 on Factor XIa (setting [1]) and at human plasma kallikrein were 18.1 nM and 25.9 nM, respectively.
The matching figures for `O=C1C=C(c2c(-n3cnnn3)ccc(Cl)c2F)C[C@H]2CC[C@@H](c3ncc(-c4ccnc([C@@H](O)C(F)(F)F)c4)[nH]3)N12` (relative stereo) [Example 175, (3S*,8 aR*)-7-(3-chloro-2-fluoro-6-(1H-tetrazol-1-yl)phenyl)-3-(5-(2-((R*)-2,2,2-trifluoro-1-hydroxyethyl)pyridin-4-yl)-1H-imidazol-2-yl)-2,3,8,8a-tetrahydroindolizin-5(1H)-one]: 9.5 nM and 30.3 nM.
The matching figures for `NC(=O)c1ccc(-c2cnc([C@@H]3CC[C@@H]4CC(c5c(-n6cnnn6)ccc(Cl)c5F)=CC(=O)N43)[nH]2)s1` (relative stereo) [Example 238, 5-(2-((3*S,8aR)-7-(3-Chloro-2-fluoro-6-(1H-tetrazol-1-yl)phenyl)-5-oxo-1,2,3,5,8,8a-hexahydroindolizin-3-yl)-1H-imidazol-5-yl)thiophene-2-carboxamide]: 0.2 nM and 0.7 nM.
The matching figures for `O=C(Nc1cnccc1-c1c[nH]c([C@@H]2CC[C@@H]3CC(c4c(-n5cnnn5)ccc(Cl)c4F)=CC(=O)N32)n1)C1CC1` (relative stereo) [Example 249, N-(4-(2-((3S,8a*R)-7-(3-Chloro-2-fluoro-6-(1H-tetrazol-1-yl)phenyl)-5-oxo-1,2,3,5,8,8a-hexahydroindolizin-3-yl)-1H-imidazol-4-yl)pyridin-3-yl)cyclopropanecarboxamide]: 0.2 nM and 0.4 nM.
Take `O=C(Nc1cnccc1-c1c[nH]c([C@@H]2CC[C@H]3CC(c4c(-n5cnnn5)ccc(Cl)c4F)=CC(=O)N32)n1)C1CC1` (relative stereo) [Example 250, N-(4-(24(3S,8aS*)-7-(3-choro-2-fluoro-6-(1H-tetrazol-1-yl)phenyl)-5-oxo-1,2,3,5,8,8a-hexahydroindolizin-3-yl)-1H-imidazol-4-yl)pyridin-3-yl)cyclopropanecarboxamide]: the half-maximal inhibitory concentration (IC50) on Factor XIa (setting [1]) was 0.2 nM; at human plasma kallikrein, 0.7 nM.
The like results for `O=C1Nc2ccc(-c3cnc([C@@H]4CC[C@@H]5CC(c6c(-n7cnnn7)ccc(Cl)c6F)=CC(=O)N54)[nH]3)cc2CO1` (relative stereo) [Example 277, 6-(2-((3S,8aR)-7-(3-Chloro-2-fluoro-6-(1H-tetrazol-1-yl)phenyl)-5-oxo-1,2,3,5,8,8a-hexahydroindolizin-3-yl)-1H-imidazol-5-yl)-1,4-dihydro-2H-benzo[d][1,3]oxazin-2-one] were, in that order, 0.2 nM and 1.1 nM.
The like results for `O=C1Nc2ccc(-c3cnc([C@@H]4CC[C@H]5CC(c6c(-n7cnnn7)ccc(Cl)c6F)=CC(=O)N54)[nH]3)cc2CO1` (relative stereo) [Example 278] were, in that order, 0.5 nM and 1.9 nM.
In the case of `O=C1CCc2cc(-c3cnc([C@@H]4CC[C@H]5CC(c6c(-n7cnnn7)ccc(Cl)c6F)=CC(=O)N54)[nH]3)ccc2N1` (relative stereo) [Example 280, 6-(2-((3S,8aS)-7-(3-Chloro-2-fluoro-6-(1H-tetrazol-1-yl)phenyl)-5-oxo-1,2,3,5,8,8a-hexahydroindolizin-3-yl)-1H-imidazol-5-yl)-3,4-dihydroquinolin-2(1H)-one], the half-maximal inhibitory concentration (IC50) turned out to be 0.6 nM at Factor XIa (setting [1]) and 1.2 nM on human plasma kallikrein.
The matching figures for `O=C1CCc2cc(-c3cnc([C@@H]4CC[C@@H]5CC(c6c(-n7cnnn7)ccc(Cl)c6F)=CC(=O)N54)[nH]3)ccc2N1` (relative stereo) [Example 281, 6-(2-((3S,8aR)-7-(3-Chloro-2-fluoro-6-(1H-tetrazol-1-yl)phenyl)-5-oxo-1,2,3,5,8,8a-hexahydroindolizin-3-yl)-1H-imidazol-5-yl)-3,4-dihydroquinolin-2(1H)-one]: 0.3 nM and 0.8 nM.
The like results for `CNc1ccc(-c2cnc([C@@H]3CC[C@@H]4CC(c5c(-n6cnnn6)ccc(Cl)c5F)=CC(=O)N43)[nH]2)c(F)n1` (relative stereo) [Example 282, (3S,8aR)-7-(3-Chloro-2-fluoro-6-(1H-tetrazol-1-yl)phenyl)-3-(5-(2-fluoro-6-(methylamino)pyridin-3-yl)-1H-imidazol-2-yl)-2,3,8,8a-tetrahydroindolizin-5(1H)-one] were, in that order, 1.2 nM and 9 nM.

Usually IC50 stands for the concentration needed to halve the response being measured.
